The values that follow come from patent US12441693B2, “Targeting STAT sumoylation to enhance immune responses” (THE GEORGE WASHINGTON UNIVERSITY, priority 2018, dated 2025).

For one data set, the system named is NK cells. The conditions noted are these: single agent, 48 hours. How it is done: To determine if STAT SUMOylation increases Gzm B expression in NK cells, isolated human NK cells were analyzed after a 3-day incubation with either IL-2, IL-15, HODHBt, IL-2+IL-15, HODHBt+IL-2, HODHBt+IL-15, or HODHBt+IL-2+IL-15.
To further characterize the effects of STAT SUMOylation inhibition in NK cell function, primary human NK cells were isolated and cultured with IL-15 in the presence or absence of HODHBt. 48 hours later, cells were phenotyped by flow cytometry.
To characterize the induction of other proteins known to be important for the cytolytic activity of NK cells, primary human NK cells were isolated from 6 male and 6 female donors and cultured with IL-15 in the presence or absence of HODHBt. 48 hours later, levels of Granzyme A (FIG. 18A), Perforin (FIG. 18B), Granulysin (FIG. 18C), TRAIL (FIG. 18D) and Fas ligand (FASL) (FIG. 18E) were analyzed by flow cytometry.
Antibody-dependent cell-mediated cytotoxicity (ADCC) is mediated by the recognition of an antibody bound to a cell through an Fc receptor present in NK cells, mostly CD16 (FCGR3A). To address whether inhibiting STAT SUMOylation alters CD16 expression in the surface of NK cells, freshly isolated NK cells were treated with either IL-15, HODHBt or a combination of both for 48 hours and surface expression of CD16 was measured by flow cytometry.
Since IL-15 activated STATs, it was hypothesized that STATs, and in particular STAT1, was controlling expression of CXCR5 (C—X—C Motif Chemokine Receptor 5) and that inhibiting STAT SUMOylation enhances CXCR5 expression and promotes migration towards a CXCL13 (C—X—C Motif Chemokine Ligand 13) gradient. CXCL13 controls homing of lymphocytes to follicles in lymph nodes; however whether this mechanism of regulation exists in human NK cells and whether IL-15 controls expression were unknown. To address which one of the two scenarios was potentially playing a role in the presence of NK cells within the follicles, human NK cells were treated with IL-15, HODHBt or a combination of both for 48 hours. Surface expression of CXCR5 and viability were next measured by flow cytometry.
To phenotype the cells, 1×10^5 cells were stained with a viability dye (Fixable Viability Dye eFluor 450, Affymetrix, eBioscience, San Diego, CA) and the surface marker-specific mAb specific for human: PE-anti-CD25 (Caltag, Burlingame, CA) and PE-anti-CD69 (Caltag, Burlingame, CA) followed by flow cytometric analysis in a BD FACScanto II flow cytometer using the FACSDiva software (Becton Dickinson, Mountain View, CA) and analyzed using FlowJo (Tree Star Inc., Ashland, OR).

For another data set, the system named is K562. The data set can be described thus: NK cell killing of K562 cells, E:T 1:1, 4 hours. The data set is classed as cell-based, human. The conditions noted are these: NK cells pretreated with single agent, E:T 1:1, 4 hours. How it is done:
It was therefore hypothesized that inhibiting STAT SUMOylation may enhance the ability of IL-15 stimulated NK cells to clear the HIV latent reservoir. To test the hypothesis, NK cells were treated with DMSO, IL-15-stimulated, treated with HODHBt or IL-15-stimulated and treated with HODHBt. Cells were then tested in their ability to kill the erythroleukemia cell line K562, which lack MHC-I. In an experiment, the NK cells from two donors were co-cultured with K562 at an E:T ratio of 1:1 for 4 hours (FIG. 19A). NK cells were pretreated with IL-15, HODHBt, or a combination of both.

The test system of data set [1] is primary human CD4 T cells. The data set can be described thus: Viability of primary CD4 T cells in the screening. Type of data set: cell-based. To be noted: at the concentration tested. How it is done: It was observed that the ability of different benzotriazole and benzotriazin derivatives to increase STAT5 phosphorylation correlated with the ability of the compounds to induce the expression of CD69 (a STAT5 target gene) (FIG. 2A) but not CD25 (FIG. 2B) in the surface of human CD4 T cells. Based on these findings, a primary cell screening assay was set up according to FIG. 2C to identify derivatives with similar activity. As an example, flow cytometry was performed to isolated activated cells (FIG. 2D), which were expanded in the presence of DMSO or a compound of interest (FIG. 2E), and screened for changes in the expression of CD69 (FIG. 2F).

IL-15: interleukin-15 (IL-15), cytokine: in the data set with NK cells, the “surface expression of CD69 on NK cells” value is “induced the surface expression of CD69” and the “surface expression of CXCR5 on NK cells” value is “induced surface expression of CXCR5”. Also, the “expression of Granzyme A, Perforin, Granulysin, TRAIL and FASL in NK cells” value in the data set on NK cells (6 male and 6 female donors) is “induced the expression of all these genes”. In the data set with NK cells (vs media control), the “expression of GZMB in NK cells” value is given as “increased the expression of GZMB”. The “killing of K562 by pretreated NK cells” value in the data set with K562 is recorded as “induced increase killing of K562 over a 4-hour period”.
Regarding `CC(C)(C)OC(=O)NCc1ccc(C(=O)On2nnc3ccccc3c2=O)cc1` [BIN024], in data set [1], the “toxicity / viability of primary CD4 T cells” value was “high levels of toxicity”.
